Laboratory results: ChEMBL document CHEMBL4765275, “Discovery of novel tertiary amide derivatives as NEDDylation pathway activators to inhibit the tumor progression in vitro and in vivo” (Eur J Med Chem, 2020)
Active and inactive are the calls of the source. The calls are words filed in the database; no cut-off is given here.

Assays:
MGC-803 [1] = test: Cell cycle arrest in human MGC-803 cells assessed as accumulation at S phase at 50 nmol/L measured after 48 hrs by propidium iodide staining based flow cytometry (reference value: 34.48%); format: functional
MGC-803 [2] = test: Induction of apoptosis in human MGC-803 cells assessed as increase in activated caspase-2 expression at 50 to 150 nmol/L measured after 48 hrs by Western blot analysis; format: functional, cell-based; settings: dose 50-150 nmol/L
[3] = target: T1, NEDD8-activating enzyme E1 regulatory subunit (Homo sapiens) (UniProt Q13564); test: Stabilization of NAE1 (unknown origin) at 150 nmol/L by CETSA; settings: filed as activator
T1 sequence (whole entry): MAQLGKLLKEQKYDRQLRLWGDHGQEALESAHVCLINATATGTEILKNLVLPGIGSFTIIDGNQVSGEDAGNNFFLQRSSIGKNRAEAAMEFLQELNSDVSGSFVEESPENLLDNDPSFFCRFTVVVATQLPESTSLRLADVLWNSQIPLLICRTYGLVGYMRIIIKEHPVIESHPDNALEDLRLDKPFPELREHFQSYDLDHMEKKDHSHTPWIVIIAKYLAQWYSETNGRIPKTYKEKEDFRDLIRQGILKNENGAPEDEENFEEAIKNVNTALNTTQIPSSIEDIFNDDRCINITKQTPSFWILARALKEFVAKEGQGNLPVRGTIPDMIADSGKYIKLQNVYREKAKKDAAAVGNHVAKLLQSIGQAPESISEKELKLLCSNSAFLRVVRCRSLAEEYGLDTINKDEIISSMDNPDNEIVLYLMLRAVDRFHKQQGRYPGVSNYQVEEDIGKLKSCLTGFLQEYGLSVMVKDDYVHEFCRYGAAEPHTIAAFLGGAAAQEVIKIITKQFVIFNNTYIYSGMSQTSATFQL

MGC-803 [4] = test: Induction of apoptosis in human MGC-803 cells assessed as necrotic cells at 100 nmol/L measured after 48 hrs by Annexin V-FITC/propidium iodide staining based flow cytometry (reference value: 0.5%); format: functional
MGC-803 [5] = test: Induction of apoptosis in human MGC-803 cells assessed as down regulation of c-IAP1 expression at 150 nmol/L measured after 24 hrs in presence of proteasome inhibitor […] by Western blot analysis; format: functional, cell-based
MGC-803 [6] = test: Antitumor activity against human MGC-803 cells xenografted in mouse assessed as reduction in tumor weight at 100 mg/kg, sc measured after 28 days relative to control; format: functional; design: scale not given: the % may be the effect or the level left; settings: time 28 day
MGC-803 [7] = test: Induction of apoptosis in human MGC-803 cells assessed as down regulation of Bcl-xL expression at 50 to 150 nmol/L measured after 48 hrs by Western blot analysis; format: functional, cell-based; settings: dose 50-150 nmol/L
MGC-803 [8] = test: Antitumor activity against human MGC-803 cells xenografted in mouse assessed as reduction in tumor weight at 50 mg/kg, sc measured after 28 days relative to control; format: functional; design: scale not given: the % may be the effect or the level left; settings: time 28 day
MGC-803 [9] = test: Induction of apoptosis in human MGC-803 cells assessed as viable cells at 75 nmol/L measured after 48 hrs by Annexin V-FITC/propidium iodide staining based flow cytometry (reference value: 91.7%); format: functional; settings: read-out: Activity
MGC-803 [10] = test: Induction of apoptosis in human MGC-803 cells assessed as late apoptotic cells at 75 nmol/L measured after 48 hrs by Annexin V-FITC/propidium iodide staining based flow cytometry (reference value: 5.6%); format: functional
[11] = target: T1, NEDD8-activating enzyme E1 regulatory subunit (Homo sapiens); test: Activation of NAE1-mediated neddylation in human MGC-803 cells assessed as increase in Nedd8-[…] adduct formation at 50 to 500 nmol/L measured after 30 mins in presence of ATP by Western blot analysis; format: cell-based; settings: filed as activator, dose 50-500 nmol/L
MGC-803 [12] = test: Induction of apoptosis in human MGC-803 cells assessed as late apoptotic cells at 50 nmol/L measured after 48 hrs by Annexin V-FITC/propidium iodide staining based flow cytometry (reference value: 5.6%); format: functional
MGC-803 [13] = test: Induction of apoptosis in human MGC-803 cells assessed as upregulation of PIDD expression at 50 to 150 nmol/L measured after 48 hrs by Western blot analysis; format: functional, cell-based; settings: dose 50-150 nmol/L
MGC-803 [14] = test: Induction of apoptosis in human MGC-803 cells assessed as viable cells at 100 nmol/L measured after 48 hrs by Annexin V-FITC/propidium iodide staining based flow cytometry (reference value: 91.7%); format: functional; settings: read-out: Activity
MGC-803 [15] = test: Antiproliferative activity against human MGC-803 cells assessed as cell viability measured after 48 hrs by MTT assay relative to control; format: functional
MGC-803 [16] = test: Cell cycle arrest in human MGC-803 cells assessed as accumulation at G2 phase at 50 nmol/L measured after 48 hrs by propidium iodide staining based flow cytometry (reference value: 24.91%); format: functional
MGC-803 [17] = test: Cell cycle arrest in human MGC-803 cells assessed as accumulation at G1 phase at 50 nmol/L measured after 48 hrs by propidium iodide staining based flow cytometry (reference value: 40.61%); format: functional
MGC-803 [18] = test: Cell cycle arrest in human MGC-803 cells assessed as accumulation at G2 phase at 100 nmol/L measured after 48 hrs by propidium iodide staining based flow cytometry (reference value: 24.91%); format: functional
MGC-803 [19] = test: Induction of apoptosis in human MGC-803 cells assessed as down regulation of XIAP expression at 150 nmol/L measured after 24 hrs in presence of NEDDylation inhibitor MLN4924 by Western blot analysis; format: functional, cell-based
MGC-803 [20] = test: Cell cycle arrest in human MGC-803 cells assessed as accumulation at G1 phase at 150 nmol/L measured after 48 hrs by propidium iodide staining based flow cytometry (reference value: 40.61%); format: functional
MGC-803 [21] = test: Induction of apoptosis in human MGC-803 cells assessed as increase in cleaved PARP expression at 150 nmol/L measured after 24 hrs in presence of NEDDylation inhibitor MLN4924 by Western blot analysis; format: functional, cell-based
MGC-803 [22] = test: Induction of apoptosis in human MGC-803 cells assessed as upregulation of Fasl expression at 50 to 150 nmol/L measured after 48 hrs by Western blot analysis; format: functional, cell-based; settings: dose 50-150 nmol/L
[23] = target: T1, NEDD8-activating enzyme E1 regulatory subunit (Homo sapiens); test: Activation of NAE1-mediated neddylation in human MGC-803 cells assessed as increase in Nedd8-CUL1 adduct formation at 50 to 150 nmol/L measured after 24 hrs by Western blot analysis; format: cell-based; settings: filed as activator, dose 50-150 nmol/L
MGC-803 [24] = test: Induction of apoptosis in human MGC-803 cells assessed as early apoptotic cells at 150 nmol/L measured after 48 hrs by Annexin V-FITC/propidium iodide staining based flow cytometry (reference value: 2.2%); format: functional
MGC-803 [25] = test: Induction of apoptosis in human MGC-803 cells assessed as early apoptotic cells at 50 nmol/L measured after 48 hrs by Annexin V-FITC/propidium iodide staining based flow cytometry (reference value: 2.2%); format: functional
MGC-803 [26] = test: Antiproliferative activity against human MGC-803 cells assessed as cell viability measured after 48 hrs in presence of NEDDylation inhibitor MLN4924 by MTT assay relative to control; format: functional
MGC-803 [27] = test: Induction of apoptosis in human MGC-803 cells assessed as down regulation of XIAP expression at 50 to 150 nmol/L measured after 48 hrs by Western blot analysis; format: functional, cell-based; settings: dose 50-150 nmol/L
MGC-803 [28] = test: Induction of apoptosis in human MGC-803 cells assessed as early apoptotic cells at 100 nmol/L measured after 48 hrs by Annexin V-FITC/propidium iodide staining based flow cytometry (reference value: 2.2%); format: functional

Activity [3]: Active
Activity [11]: Active
Activity [23]: Active
SMILES: COc1ccc(CN(C(=O)Cc2cccs2)c2cc(OC)c(OC)c(OC)c2)cc1
Activity (MGC-803 [1]): 27.68%
Activity (MGC-803 [2]): Active
Activity (MGC-803 [4]): 2.5%
Activity (MGC-803 [5]): inactive
Activity (MGC-803 [6]): 42%
Activity (MGC-803 [7]): Active
Activity (MGC-803 [8]): 36%
viability at 0.075 µM (MGC-803 [9]): 74.4%
Activity (MGC-803 [10]): 11%
Activity (MGC-803 [12]): 6.5%
Activity (MGC-803 [13]): Active
viability at 0.1 µM (MGC-803 [14]): 32%
Activity (MGC-803 [15]): 12.1%
Activity (MGC-803 [16]): 35.12%
Activity (MGC-803 [17]): 37.2%
Activity (MGC-803 [18]): 36.03%
Activity (MGC-803 [19]): Active
Activity (MGC-803 [20]): 13.31%
Activity (MGC-803 [21]): inactive
Activity (MGC-803 [22]): Active
Activity (MGC-803 [24]): 39.9%
Activity (MGC-803 [25]): 5.2%
Activity (MGC-803 [26]): 64.2%
Activity (MGC-803 [27]): Active
Activity (MGC-803 [28]): 42.4%
